BindingDB's records for patent US20240342186 (Boehringer Ingelheim International, 2024)

target: Cyclic GMP-AMP synthase (Homo sapiens, UniProt Q8N884); assay: Biochemical (In Vitro) Assay
Sequence (Q8N884 whole entry): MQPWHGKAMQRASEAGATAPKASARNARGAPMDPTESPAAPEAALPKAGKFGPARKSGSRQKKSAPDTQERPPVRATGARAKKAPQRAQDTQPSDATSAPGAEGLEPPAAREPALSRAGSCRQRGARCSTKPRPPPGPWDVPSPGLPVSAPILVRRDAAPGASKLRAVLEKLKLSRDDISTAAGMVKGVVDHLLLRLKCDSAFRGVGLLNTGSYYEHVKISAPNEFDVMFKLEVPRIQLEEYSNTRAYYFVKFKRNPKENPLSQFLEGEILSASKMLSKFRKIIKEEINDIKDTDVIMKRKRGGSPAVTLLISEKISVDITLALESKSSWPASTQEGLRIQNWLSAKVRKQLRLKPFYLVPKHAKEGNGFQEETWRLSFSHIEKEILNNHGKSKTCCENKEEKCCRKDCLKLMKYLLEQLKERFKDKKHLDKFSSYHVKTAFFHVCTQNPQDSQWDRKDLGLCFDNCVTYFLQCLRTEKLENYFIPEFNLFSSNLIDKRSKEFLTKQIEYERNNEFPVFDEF

| IC50 | Structure (SMILES) |
| --- | --- |
| 6 nM | CC1(C#N)CCCN(c2cc(Cl)cnc2O[C@H]2C[C@@H](C(=O)O)N(c3nc(C(F)F)nc4c3oc3ccccc34)C2)C1 (stereo partly drawn) [US20240342186, Example 1.04] |
| 9 nM | O=C(O)[C@@H]1C[C@H](Oc2ncc(Br)cc2N2CCOC3(COC3)C2)CN1c1nc(C(F)F)nc2c1oc1ccccc12 [US20240342186, Example 1.24] |

| Structure (SMILES) | IC50 |
| --- | --- |
| C#Cc1cnc(O[C@H]2C[C@@H](C(=O)O)N(c3nc(C(F)F)nc4c3oc3ccccc34)C2)c(N2CCOC3(COC3)C2)c1 [US20240342186, Example 1.25] | 4 nM |
